Measured values: patent US6005099A, “Glucosamine disaccharides, method for their preparation, pharmaceutical composition comprising same, and their use” (priority 1993, dated 1999)
Converted amounts (≈) assume the structure as drawn. “Also recorded” adds a separate entry of the source. Where a name gives a salt, the structure may show the parent alone.

Legend:
protease in LAL [1] = experiment: Endotoxicity, chromogenic LAL test with 0.1 mg/ml bovine serum albumin; format: biochemical, Limulus polyphemus; settings: n=4 or 6
Protocol: (§1) The endotoxicity was also measured in the chromogenic test, in which the activation of a protease in LAL by LPS was measured using a chromogen (Ac-Ile-Glu-Ala-Arg-pNA; Bio Whittaker Kit No. 50-650U). The colour formation (liberation of pNA (p-nitroaniline)) was measured at 405 nm.
(§2) Samples were pre-incubated at 37° C. during 10 minutes and subsequently chromogen-comprising LAL was added. The time required for reaching an optical density of 0.2 at 405 nm was measured. The endotoxin activity was calculated in comparison to a reference curve obtained for LPS standards.
The endotoxicity of the disaccharides E, F and G was determined using the chromogenic LAL test (see infra). However, instead of using 1 mg/ml bovine serum albumin, 0.1 mg/ml has been used. The results (n=4 or 6) were obtained in two series of experiments and are shown hereafter.

[2] = test system: macrophages of C57BL/6 mice; experiment: Nitric oxide (NO) production in supernatants of macrophages; format: cell-based
Protocol: Bone marrow was collected from hip, femur and tibia of six week old male C57BL/6 mice.
After 7 days the mature macrophages were collected and resuspended in Dulbecco modified medium comprising 5% foetal calf serum to a concentration of 7×10^6 cells per ml. This cell suspension was mixed 1:1, (v/v) with samples diluted in the same medium and used in the biological tests performed in microplates with 70,000 cells/well (incubation at 37° C. for 22 hours, 100% humidity and 8% CO2).
Nitric oxide (NO) is produced by macrophages in response to bacterial infection and in particular LPS. NO seems to have cytostatic and cytotoxic properties. NO is extremely reactive and rapidly converted by oxidation into nitrite and nitrate.
The nitrite formation was determined using the Griess test (addition of 1:1, (v/v) N-(1-naphthyl)ethylene diamine hydrochloride [1 g/l in water] and p-aminobenzenesulphonamide [10 g/l in 5% H3 PO4 ]). The nitrite concentration in supernatants of activated macrophages was calculated in comparison to NaNO2 standards.

[3] = test system: Limulus amoebocyte lysate (LAL); experiment: Endotoxicity, LAL gelification test; format: biochemical, Limulus polyphemus; settings: ng LPS per ng product, n = 2-12
Protocol: (§3) The endotoxicity and the biological activity of disaccharide A (example 1) and of disaccharide B (example 2) were determined and compared to that of lipopolysaccharide originating from Escherichia coli O111:B4 (Sigma, Product No. L3024), lipid A (Sigma, Product No. L5399; used as a starting material in example 4), and 3-O-deacylated lipid A originating from lipid A of Escherichia coli F583 (prepared as in the comparative example), but without purification by HPLC.
(§4) The endotoxicity was determined in the Limulus amoebocyte lysate (LAL) test. This test is based on the observation that endotoxins induce coagulation of the hemolymph of Limulus polyphemus.
(§5) In the gelification test serial dilutions of the compound to be tested were mixed with LAL 1:1, (v/v) (Haemachem Inc., sensitivity LAL 0.06 endotoxin units/ml), and the mixture was incubated for one hour at 37° C. Then gel formation was monitored by measuring the optical density at 405 nm. The last dilution which formed a gel was determined by inverting the reaction microplate. The endotoxin activity in the samples was determined by comparison with dilutions of a lipopolysaccharide standard (1 endotoxin unit=0.1 ng LPS).
(§6) The results are expressed in table 3 as: ng LPS per ng product.

protease in LAL [4] = experiment: Endotoxicity, chromogenic LAL test; format: biochemical, Limulus polyphemus; settings: ng LPS per ng product, n = 1-10
Protocol: as §3, §4, §1, §2, §6

[5] = test system: Limulus amoebocyte lysate (LAL); experiment: Endotoxicity in the limulus amoebocyte lysate (LAL) test (gelification and chromogenic); format: biochemical, Limulus polyphemus
Protocol: as §3, §4, §5
The endotoxicity was also measured in the chromogenic test, in which the activation of a protease in LAL by LPS was measured using a chromogen (Ac-Ile-Glu-Ala-Arg-pNA; Bio Whittaker Kit No. 50-650U). […]

Solubility in water = format: physicochemical; settings: sodium salt
[6] = test system: murine peritoneal macrophages; experiment: Stimulation of nitrite production in murine peritoneal macrophages; format: cell-based; settings: quantity determined by HPLC absorption vs disaccharide A
Protocol: The biological activity of the fractions was tested by the stimulation of nitrite production in murine peritoneal macrophages as described hereinbefore.
The quantity of each analogue in the stock solution was determined from the absorption on HPLC with reference to that of disaccharide A. The fractions show activities of the same order as disaccharide A (FIG. 8). […] The position of the acyloxyacyl, 2 versus 2', has only a minor influence on the activity.
In order to eliminate the possibility that activity was due to contamination of the samples by other substances such as LPS, disaccharides E, F, G and H were repurified on reversed-phase HPLC and the regions of the HPLC baseline just before and just after the peak were also collected and treated in the same way as the fractions containing the peaks of material. The activity of the peak fractions and the baseline fractions was tested. […] The stimulation of nitrite production is thus specifically associated with the lipid A analogues.

In the case of `CCCCCCCCCC[C@H](O)C(=O)O[C@H](CCCCCCCCC)CC(=O)N[C@H]1[C@H](OC[C@H]2O[C@H](OP(=O)(O)O)[C@H](NC(=O)C[C@H](O)CCCCCCCCC)[C@@H](O)[C@@H]2O)O[C@H](CO)[C@@H](OP(=O)(O)O)[C@@H]1O` [disaccharide E, 2-Deoxy-6-O-[2-deoxy-2-[(R)-3-[(S)-2-hydroxydodecanoyloxy]-dodecanoylamino]-4-O-phosphono-β-D-glucopyranosyl]-2-[(R)-3-hydroxydodecanoylamino]-α-D-glucopyranosyl dihydrogenphosphate], the “Endotoxic activity in LAL” value (protease in LAL [1]) is reported as 0.000005 ± 0.000002 mg/mg.
In the case of `CCCCCCCCCCCC(=O)O[C@H](CCCCCCCCC)CC(=O)N[C@H]1[C@H](OC[C@H]2O[C@H](OP(=O)(O)O)[C@H](NC(=O)C[C@H](O)CCCCCCCCC)[C@@H](O)[C@@H]2O)O[C@H](CO)[C@@H](OP(=O)(O)O)[C@@H]1O` [disaccharide G, 2-Deoxy-6-O-[2-deoxy-2-[(R)-3-dodecanoyloxydodecanoylamino]-4-O-phosphono-β-D-glucopyranosyl]-2-[(R)-3-hydroxydodecanoylamino]-α-D-glucopyranosyl dihydrogenphosphate], the “Endotoxic activity in LAL” value (protease in LAL [1]) is reported as 0.00006 ± 0.00003 mg/mg.
With `CCCCCCCCCCCCCC(=O)O[C@H](CCCCCCCCCCC)CC(=O)N[C@H]1[C@H](OC[C@H]2O[C@H](OP(=O)(O)O)[C@H](NC(=O)C[C@H](O)CCCCCCCCCCC)[C@@H](O)[C@@H]2O)O[C@H](CO)[C@@H](OP(=O)(O)O)[C@@H]1O` [disaccharide B, 2-Deoxy-6-O-[2-deoxy-2-[(R)-3-tetradecanoyloxytetradecanoylamino]-4-O-phosphono-β-D-glucopyranosyl]-2-[(R)-3-hydroxytetradecanoylamino]-α-D-glucopyranosyl dihydrogenphosphate] the EC50 ([2]; Mus musculus, Macrophage, product concentration corresponding to 50% activity, 22 hours, 37° C.) was 0.05 µg/mL (≈ 0.043 µM), the minimal effective concentration ([2]; Mus musculus, Macrophage, product concentration corresponding to induced NO activity, 22 hours, 37° C., read-out: NO production: Minimum activity (product concentration)) was 0.0005 µg/mL and the “NO activity at 50% in nmol of NO2- /ml” value ([2]; extrapolated from the series dilution curve) was 5 nmol of NO2- /ml. The “NO production, in words” value ([2]; macrophages of C57BL/6 mice) was “induce NO production of the same order; also recorded: as strongly as lipid A and 3-O-deacylated lipid A”, the “NO production: Maximum activity (product concentration)” value ([2]; product concentration corresponding to induced NO activity, 22 hours, 37° C.) was 16 µg/mL and the “Endotoxic activity in LAL, gelification” value [3] was 0.004 ± 0.002 ng/ng. For the same compound, the “Endotoxic activity in LAL, chromogen” value (protease in LAL [4]) was 0.0008 ng/ng and the “Endotoxicity in LAL, in words” value [5] was “lowest endotoxicity”.
With `CCCCCCCCCCCC(=O)O[C@H](CCCCCCCCCCC)CC(=O)N[C@H]1[C@H](OC[C@H]2O[C@H](OP(=O)(O)O)[C@H](NC(=O)C[C@H](O)CCCCCCCCCCC)[C@@H](O)[C@@H]2O)O[C@H](CO)[C@@H](OP(=O)(O)O)[C@@H]1O` [sodium salt] the “Solubility in water, in words” value (Solubility in water) was “freely soluble in water” and the solubility (Solubility in water) was no less than 100 mg/mL.
For `CCCCCCCCCCCC(=O)O[C@H](CCCCCCCCC)CC(=O)N[C@H]1[C@H](OC[C@H]2O[C@H](OP(=O)(O)O)[C@H](NC(=O)C[C@@H](CCCCCCCCC)OC(=O)[C@@H](O)CCCCCCCCCC)[C@@H](O)[C@@H]2O)O[C@H](CO)[C@@H](OP(=O)(O)O)[C@@H]1O` [disaccharide H, 2-Deoxy-6-O-[2-deoxy-2-[(R)-3-dodecanoyloxydodecanoylamino]-4-O-phosphono-β-D-glucopyranosyl]-2-[(R)-3-[(S)-2-hydroxydodecanoyloxy]-dodecanoylamino]-α-D-glucopyranosyl dihydrogenphosphate], the “Stimulation of nitrite production, in words” value [6] was “most active”.
In the case of `CCCCCCCCCC[C@H](O)C(=O)O[C@H](CCCCCCCCC)CC(=O)N[C@H]1[C@@H](OP(=O)(O)O)O[C@H](CO[C@@H]2O[C@H](CO)[C@@H](OP(=O)(O)O)[C@H](O)[C@H]2NC(=O)C[C@H](O)CCCCCCCCC)[C@@H](O)[C@@H]1O` [disaccharide F, 2-Deoxy-6-O-[2-deoxy-2-[(R)-3-hydroxydodecanoylamino]-4-O-phosphono-β-D-glucopyranosyl]-2-[(R)-3-[(S)-2-hydroxydodecanoyloxy]-dodecanoylamino]-α-D-glucopyranosyl dihydrogenphosphate], the “Endotoxic activity in LAL” value (protease in LAL [1]) is reported as 0.000025 ± 0.000026 mg/mg.
